In US11319299B2, “Substituted carboxamides as inhibitors of WDR5 protein-protein binding” (PROPELLON THERAPEUTICS INC., priority 2016, dated 2022):

Each compound was assayed against WDR5 (Homo sapiens (Human), UniProt P61964) (assay: Surface Plasmon Resonance (SPR) assay, KD and residence time). Settings: surface plasmon resonance (SPR); read-out: WDR5 binding affinity (KD).
Assay type: binding

Compound	Kd
C[C@@H]1CN(c2cc(F)c(-c3nc(CN4CCOCC4)cs3)cc2NC(=O)c2c[nH]c(=O)cc2C(F)(F)F)C[C@H](C)N1C [Example 750, N-[4-fluoro-5-[4-(morpholin-4-ylmethyl)-1,3-thiazol-2-yl]-2-[(3R,5S)-3,4,5-trimethylpiperazin-1-yl]phenyl]-6-oxo-4-(trifluoromethyl)-1H-pyridine-3-carboxamide]	1.71 nM
C[C@@H]1CN(c2cc(F)c(-c3ncc(CN4CCOCC4)s3)cc2NC(=O)c2c[nH]c(=O)cc2C(F)(F)F)C[C@H](C)N1C [Example 751, N-[4-fluoro-5-[5-(morpholin-4-ylmethyl)-1,3-thiazol-2-yl]-2-[(3R,5S)-3,4,5-trimethylpiperazin-1-yl]phenyl]-6-oxo-4-(trifluoromethyl)-1H-pyridine-3-carboxamide]	8.27 nM
C[C@@H]1CN(c2cc(F)c(-c3cc(F)c(C(=O)N(C)C4CCCCC4)c(F)c3)cc2NC(=O)c2c[nH]c(=O)cc2C(F)(F)F)C[C@H](C)N1C [Example 760, N-(4′-(cyclohexyl(methyl)carbamoyl)-3′,5′,6-trifluoro-4-((3S,5R)-3,4,5-trimethylpiperazin-1-yl)-[1,1′-biphenyl]-3-yl)-6-oxo-4-(trifluoromethyl)-1,6-dihydropyridine-3-carboxamide]	2 nM
C[C@@H]1CN(c2cc(F)c(-c3cc(F)c(C(=O)N(C)C4CCCC4)c(F)c3)cc2NC(=O)c2c[nH]c(=O)cc2C(F)(F)F)C[C@H](C)N1C [Example 761, N-(4′-(cyclopentyl(methyl)carbamoyl)-3′,5′,6-trifluoro-4-((3S,5R)-3,4,5-trimethylpiperazin-1-yl)-[1,1′-biphenyl]-3-yl)-6-oxo-4-(trifluoromethyl)-1,6-dihydropyridine-3-carboxamide]	2 nM
C[C@@H]1CN(c2cc(F)c(-c3cc(F)c(C(=O)N[C@@H]4CCOC4)c(F)c3)cc2NC(=O)c2c[nH]c(=O)cc2C(F)(F)F)C[C@H](C)N1C [Example 762, 6-oxo-N-(3′,5′,6-trifluoro-4′-(((R)-tetrahydrofuran-3-yl)carbamoyl)-4-((3S,5R)-3,4,5-trimethylpiperazin-1-yl)-[1,1′-biphenyl]-3-yl)-4-(trifluoromethyl)-1,6-dihydropyridine-3-carboxamide]	0.9 nM
C[C@@H]1CN(c2cc(F)c(-c3cc(F)c(C(=O)N(C)C4COC4)c(F)c3)cc2NC(=O)c2c[nH]c(=O)cc2C(F)(F)F)C[C@H](C)N1C [Example 763, 6-oxo-N-(3′,5′,6-trifluoro-4′-(methyl(oxetan-3-yl)carbamoyl)-4-((3S,5R)-3,4,5-trimethylpiperazin-1-yl)-[1,1′-biphenyl]-3-yl)-4-(trifluoromethyl)-1,6-dihydropyridine-3-carboxamide]	0.7 nM
N-[4-fluoro-5-[2-[(2R)-2-propan-2-ylmorpholin-4-yl]pyrimidin-5-yl]-2-[(3S,5R)-3,4,5-trimethylpiperazin-1-yl]phenyl]-6-oxo-4-(trifluoromethyl)-1H-pyridine-3-carboxamide [Example 548]	0.5 nM
N-[4-fluoro-5-[2-[(2R,6S)-2,6-dimethylmorpholin-4-yl]pyrimidin-4-yl]-2-[(3R)-3,4-dimethylpiperazin-1-yl]phenyl]-6-oxo-4-(trifluoromethyl)-1H-pyridine-3-carboxamide [Example 698]	1.59 nM
N-[5-[1-(2-cyanopyrimidin-4-yl)-3,6-dihydro-2H-pyridin-5-yl]-4-fluoro-2-[(3R)-3,4-dimethylpiperazin-1-yl]phenyl]-4-(difluoromethyl)-6-oxo-1H-pyridine-3-carboxamide [Example 740]	4.47 nM
N-[5-[1-(5-cyano-1,3-thiazol-2-yl)-3,6-dihydro-2H-pyridin-4-yl]-4-fluoro-2-[(3R)-3,4-dimethylpiperazin-1-yl]phenyl]-4-fluoro-2-(trifluoromethyl)benzamide [Example 690]	4.17 nM
N-[5-[2-[4-(cyclopropylmethyl)piperazin-1-yl]pyrimidin-5-yl]-4-fluoro-2-[(3R)-3,4-dimethylpiperazin-1-yl]phenyl]-4-fluoro-2-(trifluoromethyl)benzamide [Example 560]	1.12 nM

The compounds below were run on MV4-11 cells (assay: Cell proliferation assay (ATPlite)). Settings: Homo sapiens, MV4-11, 120 h; MV-411 cells, five days; read-out: In vitro whole cell potency in MV-411 cells, (IC50).
Assay type: cell-based
Method: (iv) Cell Proliferation Assay
MV4-11 cells were seeded into a 96-well plate at 1,000 cells/well in 150 μl medium (Alpha-MEM containing 10% FBS, 100 μg/ml Normocin, and 50 μg/ml Gentamycin, Invitrogen). A HP D300 digital dispenser was used to dose cells with DMSO or test compounds across a 10-point range of concentrations (high dose of 10 μM), and cultures were grown in a humidified 5% CO2 incubator at 37° C. After five days, plates were removed from the incubator and equilibrated to room temperature. An equal volume of ATPlite assay reagent was added to each well, and samples were processed according to manufacturer's instructions (Perkin Elmer). Luminescent signal was measured using an Envision plate reader equipped with a US-Luminescence detector.

Compound	IC50
CC1CN(c2cc(F)c(-c3ccc(N4CCOCC4)c(F)c3)cc2NC(=O)c2c[nH]c(=O)cc2C(F)(F)F)CCN1C (stereo in doubt) [Example 201, N-[4-fluoro-5-(3-fluoro-4-morpholin-4-ylphenyl)-2-[(3R)-3,4-dimethylpiperazin-1-yl]phenyl]-6-oxo-4-(trifluoromethyl)-1H-pyridine-3-carboxamide]	113 nM
CC1CN(c2cc(F)c(-c3cnc(N4CCOCC4)nc3)cc2NC(=O)c2cn(C)c(=O)cc2C(F)F)CCN1C (stereo in doubt) [Example 216, 4-(difluoromethyl)-N-[4-fluoro-5-(2-morpholin-4-ylpyrimidin-5-yl)-2-[(3R)-3,4-dimethylpiperazin-1-yl]phenyl]-1-methyl-6-oxopyridine-3-carboxamide]	388 nM
CN1CCN(c2cc(F)c(-c3cccc(CN4CCOCC4)c3)cc2NC(=O)c2c[nH]c(=O)cc2C(F)(F)F)CC1 [Example 2, N-[4-fluoro-2-(4-methylpiperazin-1-yl)-5-[3-(morpholin-4-ylmethyl)phenyl]phenyl]-6-oxo-4-(trifluoromethyl)-1H-pyridine-3-carboxamide]	2250 nM
CN1CCN(c2cc(F)c(-c3ccc(N4CCOCC4)nc3)cc2NC(=O)c2c[nH]c(=O)cc2C(F)(F)F)CC1 [Example 4, N-(4-fluoro-2-(4-methylpiperazin-1-yl)-5-(6-morpholinopyridin-3-yl)phenyl)-6-oxo-4-(trifluoromethyl)-1,6-dihydropyridine-3-carboxamide]	574 nM
CN1CCN(c2cc(F)c(-c3ccc4c(c3)OCO4)cc2NC(=O)c2c[nH]c(=O)cc2C(F)(F)F)CC1 [Example 5, N-(5-(benzo[d][1,3]dioxol-5-yl)-4-fluoro-2-(4-methylpiperazin-1-yl)phenyl)-6-oxo-4-(trifluoromethyl)-1,6-dihydropyridine-3-carboxamide]	881 nM
CN1CCN(c2cc(F)c(-c3cnc(N4CCCC4)nc3)cc2NC(=O)c2c[nH]c(=O)cc2C(F)(F)F)CC1 [Example 9, N-(4-fluoro-2-(4-methylpiperazin-1-yl)-5-(2-(pyrrolidin-1-yl)pyrimidin-5-yl)phenyl)-6-oxo-4-(trifluoromethyl)-1,6-dihydropyridine-3-carboxamide]	507 nM
CN1CCN(c2cc(F)c(-c3cnc(NC4CC4)nc3)cc2NC(=O)c2c[nH]c(=O)cc2C(F)(F)F)CC1 [Example 10, N-(5-(2-(cyclopropylamino)pyrimidin-5-yl)-4-fluoro-2-(4-methylpiperazin-1-yl)phenyl)-6-oxo-4-(trifluoromethyl)-1,6-dihydropyridine-3-carboxamide]	> 10000 nM
CN1CCN(c2cc(F)c(-c3cnc(NC4CCCCC4)nc3)cc2NC(=O)c2c[nH]c(=O)cc2C(F)(F)F)CC1 [Example 11, N-(5-(2-(cyclohexylamino)pyrimidin-5-yl)-4-fluoro-2-(4-methylpiperazin-1-yl)phenyl)-6-oxo-4-(trifluoromethyl)-1,6-dihydropyridine-3-carboxamide]	1270 nM
CCOc1ncc(-c2cc(NC(=O)c3c[nH]c(=O)cc3C(F)(F)F)c(N3CCN(C)CC3)cc2F)cn1 [Example 12, N-(5-(2-ethoxypyrimidin-5-yl)-4-fluoro-2-(4-methylpiperazin-1-yl)phenyl)-6-oxo-4-(trifluoromethyl)-1,6-dihydropyridine-3-carboxamide]	929 nM
Cc1ncc(-c2cc(NC(=O)c3c[nH]c(=O)cc3C(F)(F)F)c(N3CCN(C)CC3)cc2F)cn1 [Example 13, N-(4-fluoro-2-(4-methylpiperazin-1-yl)-5-(2-methylpyrimidin-5-yl)phenyl)-6-oxo-4-(trifluoromethyl)-1,6-dihydropyridine-3-carboxamide]	> 10000 nM
CN1CCN(c2cc(F)c(-c3ccc(NC4CCCCC4)nc3)cc2NC(=O)c2c[nH]c(=O)cc2C(F)(F)F)CC1 [Example 14, N-(5-(6-(cyclohexylamino)pyridin-3-yl)-4-fluoro-2-(4-methylpiperazin-1-yl)phenyl)-6-oxo-4-(trifluoromethyl)-1,6-dihydropyridine-3-carboxamide]	1520 nM
CN1CCN(c2cc(F)c(-c3cnc(O)nc3)cc2NC(=O)c2c[nH]c(=O)cc2C(F)(F)F)CC1 [Example 15, N-(4-fluoro-5-(2-hydroxypyrimidin-5-yl)-2-(4-methylpiperazin-1-yl)phenyl)-6-oxo-4-(trifluoromethyl)-1,6-dihydropyridine-3-carboxamide]	> 10000 nM
CN1CCN(c2cc(F)c(-c3cnc(C#N)nc3)cc2NC(=O)c2c[nH]c(=O)cc2C(F)(F)F)CC1 [Example 16, N-(5-(2-cyanopyrimidin-5-yl)-4-fluoro-2-(4-methylpiperazin-1-yl)phenyl)-6-oxo-4-(trifluoromethyl)-1,6-dihydropyridine-3-carboxamide]	844 nM
CN1CCN(c2cc(F)c(-c3cnc(N4CCOCC4)nc3)cc2NC(=O)c2c[nH]c(=O)cc2C(F)F)CC1 [Example 20, 4-(difluoromethyl)-N-(4-fluoro-2-(4-methylpiperazin-1-yl)-5-(2-morpholinopyrimidin-5-yl)phenyl)-6-oxo-1,6-dihydropyridine-3-carboxamide]	604 nM
CN(C)C1CCN(c2cc(F)c(-c3cnc(N4CCOCC4)nc3)cc2NC(=O)c2c[nH]c(=O)cc2C(F)(F)F)C1 (centres unmarked) [Example 21, N-[2-[3-(dimethylamino)pyrrolidin-1-yl]-4-fluoro-5-(2-morpholin-4-ylpyrimidin-5-yl)phenyl]-6-oxo-4-(trifluoromethyl)-1H-pyridine-3-carboxamide]	271 nM
